What follows are molecules tested against T1, human PD-L1 / human PD-1 interaction (Homo sapiens, UniProt Q9NZQ7) (assay: ELISA of PD-1/PD-L1 interaction).
T1 construct: purchased R&D (PD-L1); ACRO Biosystems (PD-1, biotin)
Type: binding
Procedure: The activity of Compound 1.041 was assessed with an ELISA assay assessing the direct binding of recombinant PD-1 and PD-L1 proteins (FIG. 1A), a dimerization ELISA assay assessing the direct binding/dimerization of recombinant PD-L1 proteins (FIG. 1B), a cell based assay measuring the downstream signaling following the interaction of PD-1 and PD-L1 using a Luciferase reporter assay with cell lines overexpressing PD-1 and PD-L1 (FIG. 1C), and a mixed lymphocyte reaction assay measuring the functional outcome of upregulation of IFNg secretion, using allogenic primary human immune cells (FIG. 1D). Briefly, the mixed lymophocyte reaction assay was performed as follows: Dendritic cells and CD4+T Cells from unmatched donors were cultured together for 5 days in 96 well-flat bottom plates. Test compound was added as indicated at starting concentration of 1 μM with 1:4 dilutions with DMSO. Supernatants were harvested after 5 days of incubation and detection of human IFNg was performed by ELISA. […]
96 Well plates were coated with 1 μg/mL of human PD-L1 (obtained from R&D) in
PBS overnight at 4° C. The wells were then blocked with 2% BSA in PBS (WN) with 0.05% TWEEN-20 for 1 hour at 37° C. The plates were washed 3 times with PBS/0.05% TWEEN-20 and the compounds were serial diluted (1:5) in dilution medium and added to the ELISA plates. Human PD-1 and biotin 0.3μg/mL (ACRO Biosystems) were added and incubated for 1 hour at 37° C. then washed 3 times with PBS/0.05% TWEEN-20. A second block was performed with 2% BSA in PBS (WN)/0.05% TWEEN-20 for 10 min at 37° C. and was washed 3 times with PBS/0.05% TWEEN-20. Streptavidin—HRP was added for 1 hour at 37° C. then washed 3 times with PBS/0.05% TWEEN-20. TMB substrate was added and reacted for 20 min at 37° C. A stop solution (2 N aqueous H2SO4) was added. The absorbance was read at 450 nm using a micro-plate spectrophotometer.

T1 sequence (Q9NZQ7 19-239 limits assumed): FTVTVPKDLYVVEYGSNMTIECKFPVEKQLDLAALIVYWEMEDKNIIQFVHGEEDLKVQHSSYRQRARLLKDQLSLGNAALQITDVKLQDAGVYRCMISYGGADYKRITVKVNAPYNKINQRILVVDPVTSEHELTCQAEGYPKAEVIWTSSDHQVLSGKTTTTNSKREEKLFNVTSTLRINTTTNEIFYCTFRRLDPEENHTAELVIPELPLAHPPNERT

IC50 [nM]	Compound
< 5	C[C@@H](O)[C@H](NCc1cc(Cl)c(O[C@H]2CCc3c(-c4cccc(OCCCN5CC(O)C5)c4Cl)cccc32)cc1OCc1cncc(C#N)c1)C(=O)O
< 5	Cc1c(OCCCN2CCC(O)CC2)cccc1-c1cccc2c1CC[C@@H]2Oc1cc(OCc2cncc(C#N)c2)c(CN2CC[C@@H](O)C2)cc1Cl
< 5	Cc1c(OCCCN2CCC(F)CC2)cccc1-c1cccc2c1CC[C@@H]2Oc1cc(OCc2cc(C#N)cc(C#N)c2)c(CN[C@@H]2CCC(=O)NC2)cc1Cl
< 5	N#Cc1cncc(COc2cc(O[C@H]3CCc4c(-c5cccc(OCCCN6CC7(C6)CC(F)(F)C7)c5Cl)cccc43)c(Cl)cc2CN[C@@H]2CC[C@H]2O)c1
< 5	Cc1c(OCCCN2CCC(O)CC2)cccc1-c1cccc2c1CC[C@@H]2Oc1cc(OCc2cncc(C#N)c2)c(CNCC(C)(C)O)cc1Cl
< 5	N#Cc1cncc(COc2cc(O[C@H]3CCc4c(-c5cccc(OCCCN6CC7(C6)CC(F)(F)C7)c5Cl)cccc43)c(Cl)cc2CN[C@H]2CCC[C@H]2O)c1
< 5	CN1CCC(COc2cccc(-c3cccc4c3CC[C@@H]4Oc3cc(OCc4cncc(C#N)c4)c(CNC[C@@H]4CCC(=O)N4)cc3Cl)c2Cl)C1 (stereo partly shown)
< 5	Cc1c(OCCCN2CCC(F)CC2)cccc1-c1cccc2c1CC[C@@H]2Oc1cc(OCc2cc(C#N)cc(C#N)c2)c(CN[C@@H]2CCOC[C@H]2O)cc1Cl
< 5	CCOc1cc(O[C@H]2CCc3c(-c4cccc(OCCCN5CCC5(C)C)c4C)cccc32)c(Cl)cc1CN(C)CCCC(=O)O
< 5	Cc1c(OCCCN2CC[C@@H](F)C2)cccc1-c1cccc2c1CC[C@@H]2Oc1cc(OCc2cncc(C#N)c2)c(CN[C@@H]2CCCC[C@@H]2O)cc1Cl
< 5	Cc1c(OCCCN2CCC(O)CC2)cccc1-c1cccc2c1CCC2Oc1cc(OCc2cc(C#N)cc(C#N)c2)c(CN[C@@H](CO)C(=O)O)cc1Cl (stereo partly shown)
< 5	Cc1c(OCCCN2CC[C@H](O)[C@H](F)C2)cccc1-c1cccc2c1CC[C@@H]2Oc1cc(OCc2cncc(C#N)c2)c(CN[C@H](C(=O)O)[C@@H](C)O)cc1Cl
< 5	CCOc1cc(O[C@H]2CCc3c(-c4cccc(OCCCN5C(C)CC5C)c4C)cccc32)c(Cl)cc1CNC[C@@H]1CCC(=O)N1 (stereo partly shown)
< 5	Cc1c(OCCCN2CCC(O)CC2)cccc1-c1cccc2c1C[C@H](F)[C@@H]2Oc1cc(OCc2cncc(C#N)c2)c(CN[C@@](C)(CO)C(=O)O)cc1Cl
< 5	N#Cc1cncc(COc2cc(O[C@H]3CCc4c(-c5cccc(OCCCN6CCC(F)CC6)c5Cl)cccc43)c(Cl)cc2CN[C@H]2CCOC[C@@H]2O)c1 [drawing 198]
< 5	CC(=O)OC1CCN(CCCOc2cccc(-c3cccc4c3CC[C@@H]4Oc3cc(OCc4cncc(C#N)c4)c(CN[C@@H]4CCCC[C@@H]4O)cc3Cl)c2Cl)CC1
< 5	N#Cc1cncc(COc2cc(O[C@H]3CCc4c(-c5cccc(OCCCN6CCC(O)CC6)c5Cl)cccc43)c(Cl)cc2CNC[C@@H]2CCC(=O)N2)c1
5 to 500	Cc1c(OCCCN2CCCC2C(C)C)cccc1-c1cccc2c1CC[C@@H]2Oc1cc(OCc2cc(C#N)cc(C#N)c2)c(CN[C@H]2CCC(=O)NC2)cc1Cl (stereo partly shown)
< 5	N#Cc1cncc(COc2cc(O[C@H]3CCc4c(-c5cccc(OCCCN6CCC(F)CC6)c5Cl)cccc43)c(Cl)cc2CNCC2CNC(=O)C2)c1 (stereo partly shown)
< 5	Cc1c(OCCCN2CCC(F)CC2)cccc1-c1cccc2c1CC[C@@H]2Oc1cc(OCc2cc(C#N)cc(C#N)c2)c(CNCC(=O)NS(C)(=O)=O)cc1Cl
< 5	Cc1c(OCCCN2CCC(O)CC2)cccc1-c1cccc2c1CCC2Oc1cc(OCc2cc(C#N)cc(C#N)c2)c(CN[C@@H]2CCCC[C@@H]2O)cc1Cl (stereo partly shown)
< 5	N#Cc1cncc(COc2cc(O[C@H]3CCc4c(-c5cccc(OCCCN6CCC(F)CC6)c5Cl)cccc43)c(Cl)cc2CN[C@H]2CC[C@@H]2O)c1
< 5	Cc1c(OCCCNC[C@@H](O)CO)cccc1-c1cccc2c1CC[C@@H]2Oc1cc(OCc2cncc(C#N)c2)c(CN[C@H](C(=O)O)[C@@H](C)O)cc1Cl
< 5	Cc1c(OCCCN2CCCC2)cccc1-c1cccc2c1CC[C@@H]2Oc1cc(OCc2cc(C#N)cc(C#N)c2)c(CN[C@H]2CCC(=O)NC2)cc1Cl
< 5	Cc1c(OCCCN2CCC(O)CC2)cccc1-c1cccc2c1CC[C@@H]2Oc1cc(OCc2cncc(C#N)c2)c(CNCC2CCC(=O)N2)cc1Cl (stereo partly shown)
< 5	N#Cc1cncc(COc2cc(O[C@H]3CCc4c(-c5cccc(OCCCN6CC7(CC(F)C7)C6)c5Cl)cccc43)c(Cl)cc2CN[C@@H]2CC[C@H]2O)c1

IC50 [nM]	Compound
< 5	CN1CCC(COc2cccc(-c3cccc4c3CC[C@@H]4Oc3cc(OCc4cncc(C#N)c4)c(CNC[C@H]4CCC(=O)N4)cc3Cl)c2Cl)C1 (stereo partly shown)
< 5	N#Cc1cncc(COc2cc(O[C@H]3CCc4c(-c5cccc(OCCCN6CC7(CC(F)C7)C6)c5Cl)cccc43)c(Cl)cc2CN[C@@H]2CCCC[C@@H]2O)c1
< 5	Cc1c(OCCCN2CCC(O)CC2)cccc1-c1cccc2c1CC[C@@H]2Oc1cc(OCc2cc(C#N)cc(C#N)c2)c(CN[C@@H]2CCCC[C@@H]2O)cc1Cl
< 5	Cc1c(OCCCN2CCC(O)CC2(C)C)cccc1-c1cccc2c1CC[C@@H]2Oc1cc(OCc2cc(C#N)cc(C#N)c2)c(CN[C@H]2CCC(=O)NC2)cc1Cl (stereo partly shown)
5 to 500	CC1(F)CCN(CCCOc2cccc(-c3cccc4c3CC[C@@H]4Oc3cc(OCc4cncc(C#N)c4)c(CN[C@H]4CCC(=O)NC4)cc3Cl)c2Cl)CC1
< 5	CCCC(CO)(NCc1cc(Cl)c(O[C@H]2CCc3c(-c4cccc(OCCCN5CC(O)C5)c4Cl)cccc32)cc1OCc1cncc(C#N)c1)C(=O)O (stereo partly shown)
< 5	Cc1c(OCCCN2CCC(O)CC2)cccc1-c1cccc2c1CC[C@@H]2Oc1cc(OCc2cc(C#N)cc(C#N)c2)c(CN[C@@](C)(CO)C(=O)O)cc1Cl
< 5	CCOc1cc(O[C@H]2CCc3c(-c4cccc(OCCCN5CC[C@@H](O)C5)c4C)cccc32)c(Cl)cc1CN[C@H](C(=O)O)[C@@H](C)O
< 5	N#Cc1cncc(COc2cc(O[C@H]3CCc4c(-c5cccc(OCCCN6CCC(F)CC6)c5Cl)cccc43)c(Cl)cc2CN2CC[C@@H](O)C2)c1
< 5	CCOc1cc(O[C@H]2CCc3c(-c4cccc(OCCCN5C(C)CC5(C)C)c4C)cccc32)c(Cl)cc1CNC[C@@H]1CCC(=O)N1 (stereo partly shown)
< 5	N#Cc1cncc(COc2cc(O[C@H]3CCc4c(-c5cccc(OCCCN6CCNC(=O)C6)c5Cl)cccc43)c(Cl)cc2CNC2(C(=O)O)CCC2)c1
< 5	Cc1c(OCCCN2CC[C@H](F)C2)cccc1-c1cccc2c1CC[C@@H]2Oc1cc(OCc2cncc(C#N)c2)c(CN[C@@H]2CCCC[C@@H]2O)cc1Cl
< 5	Cc1c(OCCCN2CCC[C@H]2CO)cccc1-c1cccc2c1CC[C@@H]2Oc1cc(OCc2cncc(C#N)c2)c(CN[C@H](C(=O)O)[C@@H](C)O)cc1Cl
< 5	Cc1c(OCCCN2CCC(F)CC2)cccc1-c1cccc2c1CC[C@@H]2Oc1cc(OCc2cc(C#N)cc(C#N)c2)c(CN[C@@H]2CCC[C@H]2O)cc1Cl
< 5	Cc1c(OCCCN2[C@H](C)CC[C@@H]2C)cccc1-c1cccc2c1CC[C@@H]2Oc1cc(OCc2cc(C#N)cc(C#N)c2)c(CN[C@H]2CCC(=O)NC2)cc1Cl
< 5	Cc1c(OCCCN2CCCCC2)cccc1-c1cccc2c1CC[C@@H]2Oc1cc(OCc2cncc(C#N)c2)c(CNC[C@H]2CCC(=O)N2)cc1Cl
< 5	CCOc1cc(O[C@H]2CCc3c(-c4cccc(OCCCN5CC[C@@H](O)C5)c4C)cccc32)c(Cl)cc1CNC(CO)CO
< 5	N#Cc1cncc(COc2cc(O[C@H]3CCc4c(-c5cccc(OCCCN6CC(F)C6)c5Cl)cccc43)c(Cl)cc2CN[C@@H]2CCCC[C@@H]2O)c1
< 5	N#Cc1cncc(COc2cc(O[C@H]3CCc4c(-c5cccc(OCCCN6CC7(CC(F)C7)C6)c5Cl)cccc43)c(Cl)cc2CN[C@H]2CC[C@@H]2O)c1
< 5	Cc1c(OCCCN2CC(O)C2)cccc1-c1cccc2c1CC[C@@H]2Oc1cc(OCc2cncc(C#N)c2)c(CNCC2CCC(=O)N2)cc1Cl (stereo partly shown)
< 5	CCOc1cc(O[C@H]2CCc3c(-c4cccc(OCCCN5CC6(CC(O)C6)C5)c4C)cccc32)c(Cl)cc1CN[C@@H](CO)C(=O)O
< 5	Cc1c(OCCCN2CCC(O)CC2)cccc1-c1cccc2c1CC[C@@H]2Oc1cc(OCc2cncc(C#N)c2)c(CN(C)[C@H](C(=O)O)[C@@H](C)O)cc1Cl
< 5	C[C@@](CO)(NCc1cc(Cl)c(O[C@H]2CCc3c(-c4cccc(OCCCN5CCC5)c4Cl)cccc32)cc1OCc1cncc(C#N)c1)C(=O)O
< 5	Cc1c(OCCCN2CC3(CC(O)C3)C2)cccc1-c1cccc2c1CC[C@@H]2Oc1cc(OCc2cc(C#N)cc(C#N)c2)c(CNC[C@H]2CCC(=O)N2)cc1Cl
< 5	CCOc1cc(O[C@H]2CCc3c(-c4cccc(OCCCN5CC[C@@H](O)C5)c4C)cccc32)c(Cl)cc1CN[C@@H](CO)C(=O)O
< 5	CCOc1cc(O[C@H]2CCc3c(-c4cccc(OCCCN5CC[C@@H](O)C5)c4C)cccc32)c(Cl)cc1CNC(C)(CO)C(=O)O (stereo partly shown)

Reference: patent publication US20210236476A1, “METHODS OF TREATING CANCER WITH SMALL MOLECULE PD-L1 INHIBITORS” (CHEMOCENTRYX, INC., priority 2018, published 2021)
